Laboratory results from publication PMC4430599, “Population pharmacokinetics of intravenous and oral panobinostat in patients with hematologic and solid tumors” (European Journal of Clinical Pharmacology, 2015).

Tests used:
[1] = parameters: method as in PMID 16899611; conditions: IV, highest dose administered 14 mg/m^2; refractory hematologic tumors; cited from earlier work
[2] = Population pharmacokinetic analysis (NONMEM), first final model; assay type: in vivo, patients
From the text: (§1) A population PK data set was constructed from 581 patients with advanced hematologic and solid tumors who participated in 14 phase 1 and phase 2 studies of panobinostat (Table 1). Studies A2101 and A2102 used IV panobinostat, whereas all other studies examined oral formulations of panobinostat. The CSF was used in two of the oral panobinostat studies, B2101and B2102, whereas the remaining studies used the FMI formulation. The two phase 1 dose-escalation studies of IV panobinostat used doses of 1.2 to 20 mg/m^2 daily administered under various intermittent regimens. In three phase 1 dose-escalation studies, patients received oral panobinostat at doses ranging from 10 to 80 mg/day (administered weekly on days 1, 3, and 5; or every other week; or on days 1 and 4 every week). In five phase 2 studies, patients with cutaneous T cell lymphoma, chronic myeloid leukemia, and multiple myeloma received 20 mg panobinostat orally per day on days 1, 3, and 5 weekly. In three clinical pharmacology studies, patients received oral panobinostat at 20 mg under various regimens for study-specific purposes: in cycle 1 followed by 20 mg per day (days 1, 3, and 5 weekly) or 45 mg (days 1 and 4 weekly) in subsequent cycles. In a phase 2 study of Hodgkin lymphoma, patients received 40 mg panobinostat on days 1, 3, and 5 weekly.
(§2) PK sampling generally occurred from predose through 48 h after each oral dose or predose through 24 h after each IV dose. Panobinostat was precipitated from plasma samples, evaporated to dryness, reconstituted with 10 % aqueous acetonitrile (containing 0.2 % formic acid), and analyzed by liquid chromatography–tandem mass spectrometry assay. The assay was linear from 0.5 to 500 ng/mL [15], and the bias and coefficient of variation (CV) values of the quality-control sample results ranged from −0.7 to 0.7 % and 2.3 to 11.6 %, respectively. The lower limit of quantification of panobinostat was 0.5 ng/mL for all studies except B2201 and B2203, for which it was 0.1 ng/mL. Values below the lower limit of quantification (6 % of the total) were excluded.
The data sets for modeling were prepared using SAS version 9.2. The time of panobinostat dosing or collection of blood was computed based on the date and time when available. When the date or time was unknown, collection times were estimated based on time of examinations or schedule in the protocol. Demographic information, including age, body weight, height, sex, and race, was collected at screening and used in the analysis. […] BSA (m^2) was computed via the Gehan–George formula as 234.94×Weight^0.515×Height^0.422/10000 where weight is in kilograms and height is in centimeters. […] was computed via the Cockroft–Gault formula as 140−Age×Weight×0.85forfemales/72×Creatinine/88.4 where creatinine was in micromoles per liter.
The model was developed based on the methods described by Wahlby and colleagues. Scatterplots used to visualize the plasma concentration vs. time profile were generated using R version 2.8.1 and SAS version 9.2. PK model building was conducted using the first-order conditional estimation method with INTERACTION (FOCEI) option, using the default three significant digits for convergence, within the software program nonlinear mixed-effect modeling (NONMEM) extended version VI and version VII. Random interindividual variability parameters were estimated using exponential parameterization. The exponential error models ensured that parameter estimates were within reasonable physiological bounds; negative values were not possible. Model selection criteria were based on both objective function values (OFVs), as generated by NONMEM, and graphic diagnostic plots. For each model analyzed, NONMEM calculated the minimum value of the OFV—a statistic that, up to an additive constant, is minus twice the log likelihood of the data. […]

[3] = parameters: method as in PMID 25377157; conditions: patients with solid tumors with normal renal function; cited from earlier work
plasma protein = conditions: independent of the drug concentration in plasma; no reference given; cited from earlier work
[4] = parameters: method as in PMID 25939707; conditions: cited from earlier work
[5] = Population pharmacokinetic analysis (NONMEM), second final model; assay type: in vivo, patients
From the text: as §1, §2
The model was developed based on the methods described by Wahlby and colleagues. Scatterplots used to visualize the plasma concentration vs. time profile were generated using R version 2.8.1 and SAS version 9.2. PK model building was conducted using the first-order conditional estimation method with INTERACTION (FOCEI) option, using the default three significant digits for convergence, within the software program nonlinear mixed-effect modeling (NONMEM) extended version VI and version VII. Random interindividual variability parameters were estimated using exponential parameterization. The exponential error models ensured that parameter estimates were within reasonable physiological bounds; negative values were not possible. Model selection criteria were based on both objective function values (OFVs), as generated by NONMEM, and graphic diagnostic plots. For each model analyzed, NONMEM calculated the minimum value of the OFV—a statistic that, up to an additive constant, is minus twice the log likelihood of the data. When two models are nested and the additional parameters of the larger model are not needed, the difference in their minimum OFV is asymptotically χ^2 distributed, with the number of degrees of freedom equal to the number of parameters not common to the two models. The likelihood ratio test compared the two models on the basis of the difference in their OFV values.
PK data from both the IV and oral routes were fitted simultaneously in order to allow for estimation of the oral bioavailability. Several models were explored, including two-compartment and three-compartment models with first-order elimination. […]

[6] = parameters: method as in PMID 22864948; conditions: cited from earlier work
[7] = parameters: method as in ref 22 (a number printed in a supplementary file, which may have a reference list of its own: not looked up in the article's list); conditions: second final model; allometric exponent of weight on V2, assumed, no bootstrap; cited from earlier work
CYP3A4 = system: CYP3A4; parameters: method as in PMID 21706316; conditions: coadministered CYP3A4 inhibitor; cited from earlier work
[8] = parameters: method as in ref 17 = [17]; 17. Woo MM, Culver K, Li W, Liu A, Scott J, Parker K, Jalaluddin M, Laird G, Cooper MR, Schran HF (2008) Panobinostat (LBH589) pharmacokinetics (PK): implications for clinical safety and efficacy. Ann; conditions: oral, 60 mg; cited from earlier work

Cc1[nH]c2ccccc2c1CCNCc1ccc(/C=C/C(=O)NO)cc1 [panobinostat]
maximum concentration (Cmax, mean ± SD) [1]: 565.6 ± 450.9 ng/mL
dose proportionality of PK ([2]; dose range of 10 to 80 mg across the 14 studies, CL and V2 related to dose): dose proportional
K23 ([2]; first final model): 1.810 h⁻¹
K24 ([2]; first final model): 1.424 h⁻¹
K32 ([2]; first final model): 0.507 h⁻¹
K42 ([2]; first final model): 0.040 h⁻¹
interindividual (inter-patient) variability in clearance ([2]; first final model): 74%
OM.CLV2 (Omega 2,1) ([2]; first final model, covariance CL-V2): 0.178
V2.BSA ([2]; first final model, exponent of (BSA/1.9) on V2): 1.359
V2.AGE ([2]; first final model, exponent of (age/61) on V2): 0.396
OM.V2 (Omega 2,2) ([2]; first final model, interindividual variance of V2): 0.334
V2.ASIAN ([2]; first final model, multiplicative factor on V2, Asian vs Caucasian): 1.373
V2.BLACK ([2]; first final model, multiplicative factor on V2, black vs Caucasian): 1.241
V2.OTHER ([2]; first final model, multiplicative factor on V2, other race vs Caucasian): 1.127
F1 (bioavailability) ([2]; first final model, oral, fraction): 0.214
CL (clearance) ([2]; first final model, patient with BSA 1.9 m^2): 33.085 L/h
V2 (volume of the central compartment) ([2]; first final model, reference BSA 1.9 m^2, age 61, Caucasian): 24.838 L
clearance ([2]; human, plasma, other: IV and oral routes fitted simultaneously, first final model, patient with BSA 1.9 m^2, read-out: CL (clearance) (converted)): 552 mL/min
half-life ([2]; human, plasma, other: IV and oral routes fitted simultaneously, calculated based on the final parameter estimates, read-out: terminal half-life (converted)): ~37 h
bioavailability ([2]; human, plasma, first final model, oral, read-out: absolute bioavailability): 21.4%
fraction excreted unchanged in the urine [3]: < 2.5%
plasma protein binding (plasma protein): 90%
panobinostat exposure with liver impairment [4]: significant increases
OM.CLV2 (Omega 2,1) ([5]; covariance CL-V2): 0.151
OM.Q3V3 (Omega 4,3) ([5]; covariance Q3-V3): 0.505
OM.Q4V4 (Omega 6,5) ([5]; covariance Q4-V4): 0.556
Q3.AGE ([5]; exponent of (age/61) on Q3): 0.410
Q4.AGE ([5]; exponent of (age/61) on Q4): 0.212
V2.AGE ([5]; exponent of (age/61) on V2): -0.005
V3.AGE ([5]; exponent of (age/61) on V3): 0.713
V4.AGE ([5]; exponent of (age/61) on V4): 0.530
bioavailability ([5]; human, plasma, oral, fraction, read-out: F1 (bioavailability)): 19.4%
clearance ([5]; human, plasma, other: intravenous and oral, fitted simultaneously, reference weight 70 kg, age 61, Caucasian): 481 mL/min
OM.Q3 (Omega 3,3) ([5]; interindividual variance of Q3): 0.666
OM.Q4 (Omega 5,5) ([5]; interindividual variance of Q4): 0.497
OM.V2 (Omega 2,2) ([5]; interindividual variance of V2): 1.668
OM.V3 (Omega 4,4) ([5]; interindividual variance of V3): 0.441
OM.V4 (Omega 6,6) ([5]; interindividual variance of V4): 0.700
V2.ASIAN ([5]; multiplicative factor on V2, Asian vs Caucasian): 2.060
V2.BLACK ([5]; multiplicative factor on V2, black vs Caucasian): 1.817
V2.OTHER ([5]; multiplicative factor on V2, other race vs Caucasian): 0.835
V3 (peripheral volume) ([5]; reference weight 70 kg, age 61): 71.874 L
V4 (peripheral volume) ([5]; reference weight 70 kg, age 61): 803.193 L
V2 ([5]; reference weight 70 kg, age 61, Caucasian): 30.862 L
number of circulating metabolites [6]: approximately 40
V2.WT [7]: 1.000
panobinostat exposure with ketoconazole (CYP3A4): significant increases
mean Cmax [8]: 71 ng/mL
